Test results reported in ChEMBL document CHEMBL3994587, “An insight on synthetic and medicinal aspects of pyrazolo[1,5-a]pyrimidine scaffold” (Eur J Med Chem, 2017).
Converted amounts (≈) assume the structure as drawn.

What was measured:
Staphylococcus aureus [1] = assay: Antibacterial activity against Staphylococcus aureus measured after 18 hrs by agar dilution method; format: functional
Bacillus subtilis [2] = assay: Antibacterial activity against Bacillus subtilis measured after 18 hrs by agar dilution method; format: functional
Escherichia coli [3] = assay: Antibacterial activity against Escherichia coli measured after 18 hrs by agar dilution method; format: functional
Pseudomonas aeruginosa [4] = assay: Antibacterial activity against Pseudomonas aeruginosa measured after 18 hrs by agar dilution method; format: functional
Candida albicans [5] = assay: Antifungal activity against Candida albicans measured after 18 hrs by agar dilution method; format: functional
Staphylococcus aureus [6] = assay: Antibacterial activity against Staphylococcus aureus RCMB 000108 assessed as zone of inhibition at 30 ug/ml; format: functional; settings: read-out: IZ
Bacillus subtilis [7] = assay: Antibacterial activity against Bacillus subtilis RCMB 000109 assessed as zone of inhibition at 30 ug/ml; format: functional; settings: read-out: IZ
Escherichia coli [8] = assay: Antibacterial activity against Escherichia coli RCMB 000106 assessed as zone of inhibition at 30 ug/ml; format: functional; settings: read-out: IZ
Aspergillus fumigatus = assay: Antifungal activity against Aspergillus fumigatus RCMB 002006 assessed as zone of inhibition at 30 ug/ml; format: functional; settings: read-out: IZ
Geotrichum candidum = assay: Antifungal activity against Geotrichum candidum 052008 assessed as zone of inhibition at 30 ug/ml; format: functional; settings: read-out: IZ
[9] = test system: Syncephalastrum racemosum; assay: Antifungal activity against Syncephalastrum racemosum 005004 assessed as zone of inhibition at 30 ug/ml; format: functional; settings: read-out: IZ
Staphylococcus aureus [10] = assay: Antibacterial activity against Staphylococcus aureus NCTC 7447 assessed as zone of inhibition at 1 mg/ml measured after 24 hrs by agar diffusion method; format: functional; settings: NCTC 7447, 24 h, read-out: IZ
Bacillus subtilis [11] = assay: Antibacterial activity against Bacillus subtilis NCTC 10400 assessed as zone of inhibition at 1 mg/ml measured after 24 hrs by agar diffusion method; format: functional; settings: NCTC 10400, 24 h, read-out: IZ
Sarcina = assay: Antibacterial activity against Sarcina sp. NCTC 1117 assessed as zone of inhibition at 1 mg/ml measured after 24 hrs by agar diffusion method; format: functional; settings: NCTC 1117, 24 h, read-out: IZ
Escherichia coli [12] = assay: Antibacterial activity against Escherichia coli NCTC 10416 assessed as zone of inhibition at 1 mg/ml measured after 24 hrs by agar diffusion method; format: functional; settings: NCTC 10416, 24 h, read-out: IZ
Serratia marcescens = assay: Antibacterial activity against Serratia marcescens IMRU 70 assessed as zone of inhibition at 1 mg/ml measured after 24 hrs by agar diffusion method; format: functional; settings: IMRU 70, 24 h, read-out: IZ
Ehrlich = assay: Cytotoxicity against […] EAC cells by trypan blue staining based microscopic analysis; format: functional, cell-based, Mus musculus
Pseudomonas aeruginosa [13] = assay: Antibacterial activity against Pseudomonas aeruginosa RCMB 000103 assessed as zone of inhibition at 30 ug/ml; format: functional; settings: read-out: IZ
Translocator protein [14] = target: T1, Translocator protein (Rattus norvegicus, UniProt P16257); assay: Displacement of [3H]PK11195 from PBZR in rat kidney mitochondrial membranes measured after 90 mins by liquid scintillation counting; format: cell membranes
Translocator protein [15] = target: T1, Translocator protein; assay: Displacement of [3H]Ro5-4864 from PBZR in rat kidney mitochondrial membranes measured after 90 mins by liquid scintillation counting; format: cell membranes
[16] = test system: Trichophyton mentagrophytes; assay: Anti-fungal activity against Trichophyton mentagrophytes measured after 48 hrs by broth dilution method; format: functional
Candida albicans [17] = assay: Antifungal activity against Candida albicans RCMB 0005003 assessed as zone of inhibition at 30 ug/ml; format: functional; settings: read-out: IZ
Salmonella typhi = assay: Antibacterial activity against Salmonella typhi MTCC 98 assessed as zone of inhibition at 25 to 150 ug/ml measured after 24 hrs by agar well diffusion method; format: functional, Salmonella enterica subsp. enterica serovar Typhi
Escherichia coli [18] = assay: Antibacterial activity against Escherichia coli MTCC 443 assessed as zone of inhibition at 25 to 150 ug/ml measured after 24 hrs by agar well diffusion method; format: functional
Bacillus subtilis [19] = assay: Antibacterial activity against Bacillus subtilis MTCC 441 assessed as zone of inhibition at 25 to 150 ug/ml measured after 24 hrs by agar well diffusion method; format: functional
Staphylococcus aureus [20] = assay: Antibacterial activity against Staphylococcus aureus MTCC 96 assessed as zone of inhibition at 25 to 150 ug/ml measured after 24 hrs by agar well diffusion method; format: functional
Aspergillus niger = assay: Antifungal activity against Aspergillus niger assessed as zone of inhibition at 25 to 150 ug/ml measured after 24 to 48 hrs by agar well diffusion method; format: functional
Aspergillus flavus = assay: Antifungal activity against Aspergillus flavus MTCC 3008 assessed as zone of inhibition at 25 to 150 ug/ml measured after 24 to 48 hrs by agar well diffusion method; format: functional
Candida albicans [21] = assay: Antifungal activity against Candida albicans MTCC 227 assessed as zone of inhibition at 25 to 150 ug/ml measured after 24 to 48 hrs by agar well diffusion method; format: functional
Penicillium chrysogenum = assay: Antifungal activity against Penicillium chrysogenum MTCC 160 assessed as zone of inhibition at 25 to 150 ug/ml measured after 24 to 48 hrs by agar well diffusion method; format: functional

T1 sequence (P16257 whole entry, looked up): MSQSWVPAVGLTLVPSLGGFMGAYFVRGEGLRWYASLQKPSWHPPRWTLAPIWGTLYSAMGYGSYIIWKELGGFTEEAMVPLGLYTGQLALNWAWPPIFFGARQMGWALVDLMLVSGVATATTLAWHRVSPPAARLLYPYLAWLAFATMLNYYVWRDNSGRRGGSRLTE

Cc1nc(-c2ccccc2)sc1-c1ccn2ncc(-c3ccccc3)c2n1
MIC (Staphylococcus aureus [1]): ≥ 800 µg/mL
MIC (Bacillus subtilis [2]): ≥ 400 µg/mL
MIC (Escherichia coli [3]): ≥ 800 µg/mL
MIC (Pseudomonas aeruginosa [4]): ≥ 400 µg/mL
MIC (Candida albicans [5]): ≥ 400 µg/mL

Nc1nn2c(-c3ccco3)cc(-c3ccco3)nc2c1/N=N/c1ccccc1
zone of inhibition at 30 µg/mL (Staphylococcus aureus [6]): 16.7 mm
zone of inhibition at 30 µg/mL (Bacillus subtilis [7]): 15.7 mm
zone of inhibition at 30 µg/mL (Escherichia coli [8]): 15.2 mm
zone of inhibition at 30 µg/mL (Aspergillus fumigatus): 14.2 mm
zone of inhibition at 30 µg/mL (Geotrichum candidum): 15.3 mm
zone of inhibition at 30 µg/mL [9]: 10.2 mm

COc1ccc(NS(=O)(=O)c2ccc(/N=N/c3c(=O)[nH]n4c(-c5ncccn5)c(C#N)c(N)nc34)cc2)cc1
zone of inhibition at 1000 µg/mL (Staphylococcus aureus [10]): 12 to 14 mm
zone of inhibition at 1000 µg/mL (Bacillus subtilis [11]): 9 to 11 mm
zone of inhibition at 1000 µg/mL (Sarcina): 15 to 18 mm
zone of inhibition at 1000 µg/mL (Escherichia coli [12]): 15 to 18 mm
zone of inhibition at 1000 µg/mL (Serratia marcescens): 15 to 18 mm

Cc1nn2c(-c3ccccc3)ccnc2c1/N=N/c1c(C)n(C)n(-c2ccccc2)c1=O
ED25 (Ehrlich): 70.2 µg/mL (≈ 166 µM)
ED100 (Ehrlich): 99.8 µg/mL
IC50 (Ehrlich; Mus musculus, Ehrlich): 3.13 µg/mL (≈ 7.39 µM)
EC50 (Ehrlich; Mus musculus, Ehrlich, read-out: ED50 (the source's name)): 87.1 µg/mL (≈ 206 µM)

CN[C@@H]1[C@H](O[C@H]2[C@H](O[C@H]3[C@H](O)[C@@H](O)[C@H](N=C(N)N)[C@@H](O)[C@@H]3N=C(N)N)O[C@@H](C)[C@]2(O)C=O)O[C@@H](CO)[C@H](O)[C@H]1O [STREPTOMYCIN]
zone of inhibition at 30 µg/mL (Staphylococcus aureus [6]): 28.1 mm
zone of inhibition at 30 µg/mL (Bacillus subtilis [7]): 29.7 mm
zone of inhibition at 30 µg/mL (Pseudomonas aeruginosa [13]): 25.2 mm
zone of inhibition at 30 µg/mL (Escherichia coli [8]): 29.7 mm

Cc1nc(-c2ccccc2)sc1-c1ccn2nc(-c3ccccc3)cc2n1
MIC (Staphylococcus aureus [1]): ≥ 800 µg/mL
MIC (Bacillus subtilis [2]): ≥ 800 µg/mL
MIC (Escherichia coli [3]): ≥ 800 µg/mL
MIC (Pseudomonas aeruginosa [4]): ≥ 800 µg/mL
MIC (Candida albicans [5]): ≥ 800 µg/mL

CCC(CC)C(=O)Cc1c(-c2ccc(Cl)cc2)nn2c(C)cc(C)nc12
Ki (Translocator protein [14]): 2.4 nM
Ki (Translocator protein [15]): 1.4 nM

CCCCCCCCNc1cc(C)nc2ccnn12
MLC [16]: 160 µM (≈ 41.7 µg/mL)
MIC ([16]; Trichophyton mentagrophytes, 48 h): 20 µM (≈ 5.21 µg/mL)

Clc1ccccc1C(c1ccccc1)(c1ccccc1)n1ccnc1 [CLOTRIMAZOLE]
zone of inhibition at 30 µg/mL (Aspergillus fumigatus): 26.3 mm
zone of inhibition at 30 µg/mL (Geotrichum candidum): 23.2 mm
zone of inhibition at 30 µg/mL [9]: 21.4 mm
zone of inhibition at 30 µg/mL (Candida albicans [17]): 20.8 mm

Cc1nn(-c2ccccc2)c(Cl)c1-c1cc(-c2cc(Cl)cc(I)c2O)nc2c(/N=N/c3ccc(Cl)cc3)c(N)nn12
inhibition zone (IZ) (Salmonella typhi): 16 mm
inhibition zone (IZ) (Escherichia coli [18]): 17 mm
inhibition zone (IZ) (Bacillus subtilis [19]): 15 mm
inhibition zone (IZ) (Staphylococcus aureus [20]): 18 mm
inhibition zone (IZ) (Aspergillus niger): 26 mm
inhibition zone (IZ) (Aspergillus flavus): 21 mm
inhibition zone (IZ) (Candida albicans [21]): 19 mm
inhibition zone (IZ) (Penicillium chrysogenum): 17 mm

CC1(C)S[C@@H]2[C@H](NC(=O)Cc3ccccc3)C(=O)N2[C@H]1C(=O)O [PENICILLIN G]
zone of inhibition at 30 µg/mL (Staphylococcus aureus [6]): 30.1 mm
zone of inhibition at 30 µg/mL (Bacillus subtilis [7]): 31.6 mm
zone of inhibition at 30 µg/mL (Pseudomonas aeruginosa [13]): 28.3 mm
zone of inhibition at 30 µg/mL (Escherichia coli [8]): 33.1 mm

CCC(CC)C(=O)Cc1c(-c2ccc(OC)cc2)nn2c(C)cc(C)nc12
Ki (Translocator protein [14]): 4.7 nM
Ki (Translocator protein [15]): 3.1 nM

Cc1nn(-c2ccccc2)c(Cl)c1-c1cc(-c2cc(Cl)cc(Cl)c2O)nc2c(/N=N/c3ccc(Cl)cc3)c(N)nn12
inhibition zone (IZ) (Salmonella typhi): 24 mm
inhibition zone (IZ) (Escherichia coli [18]): 26 mm
inhibition zone (IZ) (Bacillus subtilis [19]): 16 mm
inhibition zone (IZ) (Aspergillus niger): 18 mm
inhibition zone (IZ) (Aspergillus flavus): 21 mm
inhibition zone (IZ) (Candida albicans [21]): 17 mm
inhibition zone (IZ) (Penicillium chrysogenum): 24 mm

Cc1cc(O)c(-c2cc(-c3c(C)nn(-c4ccccc4)c3Cl)n3nc(N)c(/N=N/c4ccc(Cl)cc4)c3n2)cc1Cl
inhibition zone (IZ) (Escherichia coli [18]): 16 mm
inhibition zone (IZ) (Bacillus subtilis [19]): 18 mm
inhibition zone (IZ) (Staphylococcus aureus [20]): 14 mm
inhibition zone (IZ) (Aspergillus niger): 16 mm
inhibition zone (IZ) (Aspergillus flavus): 10 mm
inhibition zone (IZ) (Candida albicans [21]): 20 mm
inhibition zone (IZ) (Penicillium chrysogenum): 19 mm

Cc1nc(-c2ccccc2)sc1-c1ccn2nc(C#N)cc2n1
MIC (Staphylococcus aureus [1]): ≥ 800 µg/mL
MIC (Bacillus subtilis [2]): ≥ 800 µg/mL
MIC (Escherichia coli [3]): ≥ 800 µg/mL
MIC (Pseudomonas aeruginosa [4]): ≥ 800 µg/mL
MIC (Candida albicans [5]): ≥ 400 µg/mL
